# Measurements taken from patent US6706663B2, “Herbicidal 3-heterocyclic substituted benzisothiazole and benzisoxazole compounds” (Wyeth, priority 2000, dated 2004).
# Tests used:
# ORYSAT (Rice, Tebonnet) = assay: Preemergence herbicidal evaluation; format: in vivo, Oryza sativa, (L.) Tebonnet; conditions: preemergence, rated 4-5 weeks after treatment
# [1] = test system: SAGPY (Sagittaria pygmaea); assay: Flooded paddy, preemergence weed control; format: in vivo, L.; conditions: rated 3-4 weeks after treatment, 0-9 rating scale
# In short: (§1)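 Ratings of 0-9 reflect visual comparison with a control for stand, vigor, deformity, size, chlorosis and overall look. Propagules were placed in shallow silt loam (top 0.5 cm) under a continuous 1.5–3 cm flood and grown in the greenhouse.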
# GALAP (Galium aparine) [2] = assay: Postemergence herbicidal evaluation; format: in vivo
# In short: (§2)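 Visual 0–9 injury scores versus control plants, covering stand, vigour, malformation, size, chlorosis and general appearance, taken four to five weeks post-spray and averaged over replicate tests. Plants were sprayed at roughly two weeks old and held on greenhouse benches.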
# CYPIR (Cyperus iria) = assay: Flooded paddy, preemergence weed control; format: in vivo; conditions: rated 3-4 weeks after treatment, 0-9 rating scale
# In short: as §1
# [3] = test system: IPOHE (Ipomoea hederacea); assay: Postemergence herbicidal evaluation; format: in vivo, (L.) Jacq.
# In short: as §2
# [4] = test system: ABUTH (Abutilon theophrasti); assay: Postemergence herbicidal evaluation; format: in vivo, Medic.
# In short: as §2
# [5] = test system: GLXMAW (Soybean, Williams); assay: Preemergence herbicidal evaluation; format: in vivo, Glycine max, (L.) Merr. cv Williams; conditions: preemergence, rated 4-5 weeks after treatment
# [6] = test system: ECHCG (Echinochloa crus-galli); assay: Postemergence herbicidal evaluation; format: in vivo, (L.) Beau
# In short: as §2
# GALAP (Galium aparine) [7] = assay: Preemergence herbicidal evaluation; format: in vivo; conditions: preemergence, rated 4-5 weeks after treatment
# In short: (§3)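 Rating 0–9, visual, vs control; 4–5 wk after spraying seeded cups with compound in aq. acetone; conventional greenhouse care.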
# [8] = test system: TRZAWR (Wheat, Winter, cv Riband); assay: Preemergence herbicidal evaluation; format: in vivo, Triticum aestivum; conditions: preemergence, rated 4-5 weeks after treatment
# In short: as §3
# [9] = test system: IPOHE (Ipomoea hederacea); assay: Preemergence herbicidal evaluation; format: in vivo, (L.) Jacq.; conditions: preemergence, rated 4-5 weeks after treatment
# [10] = test system: GLXMAW (Soybean, Williams); assay: Postemergence herbicidal evaluation; format: in vivo, Glycine max, (L.) Merr. cv Williams
# In short: as §2
# [11] = test system: CHEAL (Chenopodium album); assay: Postemergence herbicidal evaluation; format: in vivo, L.
# In short: as §2
# [12] = test system: CASOB (Cassia obtusifolia); assay: Postemergence herbicidal evaluation; format: in vivo, L.
# In short: as §2
# [13] = test system: AMBEL (Ambrosia artemisifolia); assay: Postemergence herbicidal evaluation; format: in vivo, L.
# In short: as §2
# [14] = test system: CHEAL (Chenopodium album); assay: Preemergence herbicidal evaluation; format: in vivo, L.; conditions: preemergence, rated 4-5 weeks after treatment
# In short: as §3
# [15] = test system: CASOB (Cassia obtusifolia); assay: Preemergence herbicidal evaluation; format: in vivo, L.; conditions: preemergence, rated 4-5 weeks after treatment
# In short: as §3
# [16] = test system: AMBEL (Ambrosia artemisifolia); assay: Preemergence herbicidal evaluation; format: in vivo, L.; conditions: preemergence, rated 4-5 weeks after treatment
# In short: as §3
# [17] = test system: ECHORC (Echinochloa oryzoides); assay: Flooded paddy, preemergence weed control; format: in vivo, Echinochloa oryzoides (Ard.) Fritsch.; conditions: rated 3-4 weeks after treatment, 0-9 rating scale
# In short: as §1
# ZEAMX (Corn, Field) [18] = assay: Preemergence herbicidal evaluation; format: in vivo, Zea mays, L.; conditions: preemergence, rated 4-5 weeks after treatment
# ZEAMX (Corn, Field) [19] = assay: Postemergence herbicidal evaluation; format: in vivo, Zea mays, L.
# In short: as §2
structure (smiles),measurement,setting,value
"Cn1c(C(F)(F)F)cc(=O)n(-c2ccc3snc(-c4ccccn4)c3c2)c1=O [Compound 9, 1-methyl-3-[3-(2-pyridyl)-1,2-benzisothiazol-5-yl]-6-(trifluoromethyl)uracil]",ORYSAT preemergence herbicidal rating,"ORYSAT (Rice, Tebonnet); Rate 0.0620 kg/ha",4.3
same,ORYSAT preemergence herbicidal rating,"ORYSAT (Rice, Tebonnet); Rate 0.1250 kg/ha",6.7
same,ORYSAT preemergence herbicidal rating,"ORYSAT (Rice, Tebonnet); Rate 0.2500 kg/ha",8.0
same,"herbicidal rating, SAGPY",[1]; rate 0.0080 kg/ha,0.0
same,"herbicidal rating, SAGPY",[1]; rate 0.0320 kg/ha,3.0
same,"herbicidal rating, SAGPY",[1]; rate 0.1250 kg/ha,9.0
same,"Postemergence herbicidal rating, GALAP",GALAP (Galium aparine) [2]; rate 0.0320 kg/ha,7.0
same,"Postemergence herbicidal rating, GALAP",GALAP (Galium aparine) [2]; rate 0.0620 kg/ha,7.0
same,"Postemergence herbicidal rating, GALAP",GALAP (Galium aparine) [2]; rate 0.1250 kg/ha,5.0
same,"herbicidal rating, CYPIR",CYPIR (Cyperus iria); rate 0.0080 kg/ha,8.0
same,"herbicidal rating, CYPIR",CYPIR (Cyperus iria); rate 0.0320 kg/ha,7.0
same,"herbicidal rating, CYPIR",CYPIR (Cyperus iria); rate 0.1250 kg/ha,9.0
same,"Postemergence herbicidal rating, IPOHE",[3]; rate 0.0320 kg/ha,9.0
same,"Postemergence herbicidal rating, IPOHE",[3]; rate 0.0620 kg/ha,9.0
same,"Postemergence herbicidal rating, IPOHE",[3]; rate 0.1250 kg/ha,9.0
same,"Postemergence herbicidal rating, ABUTH",[4]; rate 0.0320 kg/ha,9.0
same,"Postemergence herbicidal rating, ABUTH",[4]; rate 0.0620 kg/ha,9.0
same,"Postemergence herbicidal rating, ABUTH",[4]; rate 0.1250 kg/ha,9.0
same,GLXMAW preemergence herbicidal rating,[5]; Rate 0.0620 kg/ha,4.0
same,GLXMAW preemergence herbicidal rating,[5]; Rate 0.1250 kg/ha,8.3
same,GLXMAW preemergence herbicidal rating,[5]; Rate 0.2500 kg/ha,8.7
same,"Postemergence herbicidal rating, ECHCG",[6]; rate 0.0320 kg/ha,1.0
same,"Postemergence herbicidal rating, ECHCG",[6]; rate 0.0620 kg/ha,2.0
same,"Postemergence herbicidal rating, ECHCG",[6]; rate 0.1250 kg/ha,8.0
same,GALAP preemergence herbicidal rating,GALAP (Galium aparine) [7]; Rate 0.0620 kg/ha,1.5
same,GALAP preemergence herbicidal rating,GALAP (Galium aparine) [7]; Rate 0.1250 kg/ha,3.0
same,GALAP preemergence herbicidal rating,GALAP (Galium aparine) [7]; Rate 0.2500 kg/ha,7.0
same,TRZAWR preemergence herbicidal rating,[8]; Rate 0.0620 kg/ha,5.5
same,TRZAWR preemergence herbicidal rating,[8]; Rate 0.1250 kg/ha,7.5
same,TRZAWR preemergence herbicidal rating,[8]; Rate 0.2500 kg/ha,8.5
same,IPOHE preemergence herbicidal rating,[9]; Rate 0.0620 kg/ha,6.3
same,IPOHE preemergence herbicidal rating,[9]; Rate 0.1250 kg/ha,8.3
same,IPOHE preemergence herbicidal rating,[9]; Rate 0.2500 kg/ha,9.0
same,"Postemergence herbicidal rating, GLXMAW",[10]; rate 0.0320 kg/ha,8.3
same,"Postemergence herbicidal rating, GLXMAW",[10]; rate 0.0620 kg/ha,8.3
same,"Postemergence herbicidal rating, GLXMAW",[10]; rate 0.1250 kg/ha,9.0
same,"Postemergence herbicidal rating, CHEAL",[11]; rate 0.0320 kg/ha,9.0
same,"Postemergence herbicidal rating, CHEAL",[11]; rate 0.0620 kg/ha,9.0
same,"Postemergence herbicidal rating, CHEAL",[11]; rate 0.1250 kg/ha,9.0
same,"Postemergence herbicidal rating, CASOB",[12]; rate 0.0320 kg/ha,6.5
same,"Postemergence herbicidal rating, CASOB",[12]; rate 0.0620 kg/ha,8.0
same,"Postemergence herbicidal rating, CASOB",[12]; rate 0.1250 kg/ha,9.0
same,"Postemergence herbicidal rating, AMBEL",[13]; rate 0.0320 kg/ha,9.0
same,"Postemergence herbicidal rating, AMBEL",[13]; rate 0.0620 kg/ha,9.0
same,"Postemergence herbicidal rating, AMBEL",[13]; rate 0.1250 kg/ha,9.0
same,CHEAL preemergence herbicidal rating,[14]; Rate 0.0620 kg/ha,9.0
same,CHEAL preemergence herbicidal rating,[14]; Rate 0.1250 kg/ha,9.0
same,CHEAL preemergence herbicidal rating,[14]; Rate 0.2500 kg/ha,9.0
same,CASOB preemergence herbicidal rating,[15]; Rate 0.0620 kg/ha,1.0
same,CASOB preemergence herbicidal rating,[15]; Rate 0.1250 kg/ha,2.7
same,CASOB preemergence herbicidal rating,[15]; Rate 0.2500 kg/ha,6.3
same,AMBEL preemergence herbicidal rating,[16]; Rate 0.0620 kg/ha,6.3
same,AMBEL preemergence herbicidal rating,[16]; Rate 0.1250 kg/ha,9.0
same,AMBEL preemergence herbicidal rating,[16]; Rate 0.2500 kg/ha,9.0
same,"herbicidal rating, ECHORC",[17]; rate 0.0080 kg/ha,4.0
same,"herbicidal rating, ECHORC",[17]; rate 0.0320 kg/ha,7.0
same,"herbicidal rating, ECHORC",[17]; rate 0.1250 kg/ha,9.0
same,ZEAMX preemergence herbicidal rating,"ZEAMX (Corn, Field) [18]; Rate 0.0620 kg/ha",6.3
same,ZEAMX preemergence herbicidal rating,"ZEAMX (Corn, Field) [18]; Rate 0.1250 kg/ha",6.7
same,ZEAMX preemergence herbicidal rating,"ZEAMX (Corn, Field) [18]; Rate 0.2500 kg/ha",7.7
same,"Postemergence herbicidal rating, ZEAMX","ZEAMX (Corn, Field) [19]; rate 0.0320 kg/ha",5.3
same,"Postemergence herbicidal rating, ZEAMX","ZEAMX (Corn, Field) [19]; rate 0.0620 kg/ha",5.8
same,"Postemergence herbicidal rating, ZEAMX","ZEAMX (Corn, Field) [19]; rate 0.1250 kg/ha",5.5
